Experimental data published in patent US20230085307A1, “PYRIDAZINONE COMPOUND AND HERBICIDE” (NISSAN CHEMICAL CORPORATION, priority 2019, published 2023).

system: green foxtail; test: Test Example 4: herbicidal effect by soil treatment (Table 19, symbol G); type: in vivo, green foxtail (Setaria viridis); conditions: amount of applied herbicide 320 g/ha
How it was run: (§1)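 Herbicidal effect was rated 3 weeks after treatment, using the scoring criteria of an earlier test. The compound, formulated as an emulsion and diluted in water to a set herbicide amount, had been sprayed uniformly on soil over freshly sown seeds. Growth took place in a greenhouse at 25° C. to 30° C.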

Structure (SMILES)	G: green foxtail, herbicidal effect grade
COCCOc1ccc2c(-c3c(O)c(C)nn(C)c3=O)c(-c3ccccc3OC)sc2c1 [3-121]	5 (Herbicidal rate of 90% or more (almost completely withered))
COc1ccccc1-c1sc2cc(OCC3CC3)ccc2c1-c1c(O)c(C)nn(C)c1=O [3-129]	5 (Herbicidal rate of 90% or more (almost completely withered))

system: blackgrass; test: Test Example 4: herbicidal effect by soil treatment (Table 19, symbol J); type: in vivo, blackgrass (Alopecurus myosuroides); conditions: amount of applied herbicide 320 g/ha
How it was run: as §1

Structure (SMILES)	J: blackgrass, herbicidal effect grade
COCCOc1ccc2c(-c3c(O)c(C)nn(C)c3=O)c(-c3ccccc3OC)sc2c1 [3-121]	5 (Herbicidal rate of 90% or more (almost completely withered))
COc1ccccc1-c1sc2cc(OCC3CC3)ccc2c1-c1c(O)c(C)nn(C)c1=O [3-129]	4 (Herbicidal rate of 70% or more and less than 90%)

system: persian speedwell; test: Test Example 5: herbicidal effect by foliage application, plastic box (Table 20, symbol R); type: in vivo, Persian speedwell (Veronica persica); conditions: foliage application, 320 g/ha, three weeks after application
How it was run: (§2)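 Foliar spray test: emulsion formulation diluted in water to a set application rate, sprayed onto 14-day-old plants raised in diluvial soil at 25° C to 30° C under glass. Both herbicidal effect and crop effect rated visually three weeks later.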

Structure (SMILES)	R: persian speedwell, herbicidal effect grade
COCCOc1ccc2c(-c3c(O)c(C)nn(C)c3=O)c(-c3ccccc3OC)sc2c1 [3-121]	5 (Herbicidal rate of 90% or more (almost completely withered))
COc1ccccc1-c1sc2cc(OCC3CC3)ccc2c1-c1c(O)c(C)nn(C)c1=O [3-129]	5 (Herbicidal rate of 90% or more (almost completely withered))

system: barnyard grass; test: Test Example 3: herbicidal effect by foliage application, Wagner pot (Table 18, symbol H); type: in vivo, barnyard grass (Echinochloa crus-galli); conditions: 320 g/ha
How it was run: (§3)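 Plants were sown in alluvial soil held under 0.1–0.5 cm standing water and grown 14 days in a greenhouse at 25–30 °C. An emulsifiable formulation, water-diluted to the set dose, was then sprayed onto the foliage, and effects were scored three weeks later using previously defined criteria.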

Structure (SMILES)	herbicidal effect on barnyard grass (H)
COCCOc1ccc2c(-c3c(O)c(C)nn(C)c3=O)c(-c3ccccc3OC)sc2c1 [3-121]	5 (Herbicidal rate of 90% or more (almost completely withered))
COc1ccccc1-c1sc2cc(OCC3CC3)ccc2c1-c1c(O)c(C)nn(C)c1=O [3-129]	5 (Herbicidal rate of 90% or more (almost completely withered))

system: blackgrass; test: Test Example 5: herbicidal effect by foliage application, plastic box (Table 20, symbol J); type: in vivo, blackgrass (Alopecurus myosuroides); conditions: foliage application, 320 g/ha, three weeks after application
How it was run: as §2

Structure (SMILES)	J: blackgrass, herbicidal effect grade
COCCOc1ccc2c(-c3c(O)c(C)nn(C)c3=O)c(-c3ccccc3OC)sc2c1 [3-121]	5 (Herbicidal rate of 90% or more (almost completely withered))
COc1ccccc1-c1sc2cc(OCC3CC3)ccc2c1-c1c(O)c(C)nn(C)c1=O [3-129]	5 (Herbicidal rate of 90% or more (almost completely withered))

system: chickweed; test: Test Example 4: herbicidal effect by soil treatment (Table 19, symbol P); type: in vivo, common chickweed (Stellaria media); conditions: amount of applied herbicide 320 g/ha
How it was run: as §1

Structure (SMILES)	P: chickweed, herbicidal effect grade
COCCOc1ccc2c(-c3c(O)c(C)nn(C)c3=O)c(-c3ccccc3OC)sc2c1 [3-121]	5 (Herbicidal rate of 90% or more (almost completely withered))
COc1ccccc1-c1sc2cc(OCC3CC3)ccc2c1-c1c(O)c(C)nn(C)c1=O [3-129]	3 (Herbicidal rate of 40% or more and less than 70%)

system: late watergrass; test: Test Example 1: herbicidal activity, application before weed generation under submerged conditions (Table 16, symbol A); type: in vivo, late watergrass (Echinochloa oryzicola); conditions: amount of applied herbicide 320 g/ha
How it was run: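 Emulsion formulation, water-diluted to set dose, was put onto the flooded surface (4 cm depth, alluvial soil) the same day weeds were sown and 2.5-leaf rice transplanted. After 3 weeks at 25-30 °C under glass, each species was rated 0 (≤5% kill) to 5 (≥90% kill).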

Structure (SMILES)	Herbicidal effect, A: late watergrass
COCCOc1ccc2c(-c3c(O)c(C)nn(C)c3=O)c(-c3ccccc3OC)sc2c1 [3-121]	5 (Herbicidal rate of 90% or more (almost completely withered))
COc1ccccc1-c1sc2cc(OCC3CC3)ccc2c1-c1c(O)c(C)nn(C)c1=O [3-129]	5 (Herbicidal rate of 90% or more (almost completely withered))

system: redroot pigweed; test: Test Example 5: herbicidal effect by foliage application, plastic box (Table 20, symbol N); type: in vivo, redroot pigweed (Amaranthus retroflexus); conditions: foliage application, 320 g/ha, three weeks after application
How it was run: as §2

Structure (SMILES)	N: redroot pigweed, herbicidal effect grade
COCCOc1ccc2c(-c3c(O)c(C)nn(C)c3=O)c(-c3ccccc3OC)sc2c1 [3-121]	5 (Herbicidal rate of 90% or more (almost completely withered))
COc1ccccc1-c1sc2cc(OCC3CC3)ccc2c1-c1c(O)c(C)nn(C)c1=O [3-129]	5 (Herbicidal rate of 90% or more (almost completely withered))

system: green foxtail; test: Test Example 5: herbicidal effect by foliage application, plastic box (Table 20, symbol G); type: in vivo, green foxtail (Setaria viridis); conditions: foliage application, 320 g/ha, three weeks after application
How it was run: as §2

Structure (SMILES)	G: green foxtail, herbicidal effect grade
COCCOc1ccc2c(-c3c(O)c(C)nn(C)c3=O)c(-c3ccccc3OC)sc2c1 [3-121]	5 (Herbicidal rate of 90% or more (almost completely withered))
COc1ccccc1-c1sc2cc(OCC3CC3)ccc2c1-c1c(O)c(C)nn(C)c1=O [3-129]	5 (Herbicidal rate of 90% or more (almost completely withered))

system: southern crabgrass; test: Test Example 5: herbicidal effect by foliage application, plastic box (Table 20, symbol F); type: in vivo, southern crabgrass (Digitaria ciliaris); conditions: foliage application, 320 g/ha, three weeks after application
How it was run: as §2

Structure (SMILES)	F: southern crabgrass, herbicidal effect grade
COCCOc1ccc2c(-c3c(O)c(C)nn(C)c3=O)c(-c3ccccc3OC)sc2c1 [3-121]	5 (Herbicidal rate of 90% or more (almost completely withered))
COc1ccccc1-c1sc2cc(OCC3CC3)ccc2c1-c1c(O)c(C)nn(C)c1=O [3-129]	5 (Herbicidal rate of 90% or more (almost completely withered))

system: windgrass; test: Test Example 4: herbicidal effect by soil treatment (Table 19, symbol L); type: in vivo, windgrass (Apera spica-venti); conditions: amount of applied herbicide 320 g/ha
How it was run: as §1

Structure (SMILES)	L: windgrass, herbicidal effect grade
COCCOc1ccc2c(-c3c(O)c(C)nn(C)c3=O)c(-c3ccccc3OC)sc2c1 [3-121]	5 (Herbicidal rate of 90% or more (almost completely withered))
COc1ccccc1-c1sc2cc(OCC3CC3)ccc2c1-c1c(O)c(C)nn(C)c1=O [3-129]	5 (Herbicidal rate of 90% or more (almost completely withered))

system: oval-leafed pondweed; test: Test Example 2: herbicidal activity, application during weed generation under submerged conditions (Table 17, symbol C); type: in vivo, oval-leafed pondweed (Monochoria vaginalis); conditions: AAH 320 g/ha; application during weed generation, submerged conditions
How it was run: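 In this pot test, flooded alluvial soil (water depth 4 cm) holds all three species sown as a mixture. Once seedlings have one to two leaves, the compound's emulsion, thinned with water to the intended dose, is poured on the water; grading follows after three weeks on the earlier criteria.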

Structure (SMILES)	herbicidal effect rating, C: oval-leafed pondweed
COCCOc1ccc2c(-c3c(O)c(C)nn(C)c3=O)c(-c3ccccc3OC)sc2c1 [3-121]	3 (Herbicidal rate of 40% or more and less than 70%)
COc1ccccc1-c1sc2cc(OCC3CC3)ccc2c1-c1c(O)c(C)nn(C)c1=O [3-129]	3 (Herbicidal rate of 40% or more and less than 70%)

system: barnyard grass; test: Test Example 4: herbicidal effect by soil treatment (Table 19, symbol H); type: in vivo, barnyard grass (Echinochloa crus-galli); conditions: amount of applied herbicide 320 g/ha
How it was run: as §1

Structure (SMILES)	H: barnyard grass, herbicidal effect grade
COCCOc1ccc2c(-c3c(O)c(C)nn(C)c3=O)c(-c3ccccc3OC)sc2c1 [3-121]	5 (Herbicidal rate of 90% or more (almost completely withered))
COc1ccccc1-c1sc2cc(OCC3CC3)ccc2c1-c1c(O)c(C)nn(C)c1=O [3-129]	4 (Herbicidal rate of 70% or more and less than 90%)

system: redroot pigweed; test: Test Example 4: herbicidal effect by soil treatment (Table 19, symbol N); type: in vivo, redroot pigweed (Amaranthus retroflexus); conditions: amount of applied herbicide 320 g/ha
How it was run: as §1

Structure (SMILES)	N: redroot pigweed, herbicidal effect grade
COCCOc1ccc2c(-c3c(O)c(C)nn(C)c3=O)c(-c3ccccc3OC)sc2c1 [3-121]	5 (Herbicidal rate of 90% or more (almost completely withered))
COc1ccccc1-c1sc2cc(OCC3CC3)ccc2c1-c1c(O)c(C)nn(C)c1=O [3-129]	5 (Herbicidal rate of 90% or more (almost completely withered))

system: Chinese sprangletop; test: Test Example 3: herbicidal effect by foliage application, Wagner pot (Table 18, symbol D); type: in vivo, chinese sprangletop (Leptochloa chinensis); conditions: 320 g/ha
How it was run: as §3

Structure (SMILES)	herbicidal effect on Chinese sprangletop (D)
COCCOc1ccc2c(-c3c(O)c(C)nn(C)c3=O)c(-c3ccccc3OC)sc2c1 [3-121]	4 (Herbicidal rate of 70% or more and less than 90%)
COc1ccccc1-c1sc2cc(OCC3CC3)ccc2c1-c1c(O)c(C)nn(C)c1=O [3-129]	4 (Herbicidal rate of 70% or more and less than 90%)

system: southern crabgrass; test: Test Example 4: herbicidal effect by soil treatment (Table 19, symbol F); type: in vivo, southern crabgrass (Digitaria ciliaris); conditions: amount of applied herbicide 320 g/ha
How it was run: as §1

Structure (SMILES)	F: southern crabgrass, herbicidal effect grade
COCCOc1ccc2c(-c3c(O)c(C)nn(C)c3=O)c(-c3ccccc3OC)sc2c1 [3-121]	5 (Herbicidal rate of 90% or more (almost completely withered))
COc1ccccc1-c1sc2cc(OCC3CC3)ccc2c1-c1c(O)c(C)nn(C)c1=O [3-129]	4 (Herbicidal rate of 70% or more and less than 90%)
